In series [1] the test system is Pyricularia oryzae Carvara. The following applies: in vivo.
For a further series, the system named is rice. The settings on record: 1000 ppm.
Series [2] deals with Podosphaera leucotricha (E&E) Salm. Description: whole plant or invertebrate. Type of series: in vivo. The following applies: for pest or weed control at 500 ppm: Podosphaera leucotricha, foliar, read-out: Apple Powdery Mildew Percent Disease Control; for activity against apple powdery mildew: in vivo.
For series [3], the system named is Puccinia recondita var. tritici. The series can be described thus: Protectant control of leaf rust of wheat. The class given is in vivo. On the procedure:
(§1) Individual pots of approximately 20 to 25 wheat (Triticum vulgare, cv. Cheyenne) plants each, grown under greenhouse conditions, approximately 7 to 8 days old and 10.2 to 12.7 cm. tall are used as test plants, a minimum of three such pots per unit of test.
(§2) The required amount of test compound is dissolved in 10 ml. of a stock solution consisting of 1995 ml. acetone, 4 ml. sorbitan trioleate and 1 ml. polyoxyethylene (20) sorbitan monooleate and diluted to a volume of 100 ml. by addition of 90 ml. deionized water.
(§3) Test plants, three pots per unit of test, are mounted on a compound turntable and sprayed to incipient run-off with the test solution applied at 2.81 kg/cm^2 pressure for 60 seconds using a solid conte T-Jet 8801E spray nozzle. By this spray procedure the delivery rate is equivalent to approximately 467.7 l/ha.
(§4) Treated plants are allowed to air dry for 5 to 6 hours and then inoculated by uniformly dusting with urediospores of leaf rust of wheat (Puccinia recondita var. tritici) at a rate of approximately 2 × 10^5 urediospores per replicate, using urediospores directly from diseased plants. Inoculated plants are immediately placed in an incubation chamber maintained at 21° C. and 95% + RH. After 24 hours plants are removed to the greenhouse and maintained under greenhouse conditions of 21° to 29.4° C. and 50 to 75% RH for 5 to 8 days until signs of orange pustules visible to the naked eye appear on the inoculated but otherwise untreated controls.
Effectiveness of the compound, as applied, is expressed as Percent Control calculated as: [formula]
Average number of pustules on plants of any given test unit is determined by randomly dividing all plants in each of the three replicates (one pot per replicate) into quadrants, counting the actual number of pustules on all plants within a quadrant in each of the three replicates, multiplying by four and averaging the total number of pustules thus obtained as the average number of pustules per replicate.

Series [4] in a line: Thermal decomposition point (Differential Thermal Analyzer). Type of series: physicochemical. The settings on record: 20° C./min, onset method; listed as Parent Compound. As to the method:
By the procedure of Examples 2 and 5 the following novel salts of 2,3,5,6-tetrachloro-N-nitroaniline are prepared as listed in Table II below. The melting points (uncorrected) of said salts are determined on a Thomas Hoover Capillary Melting Point Apparatus; while the thermal decomposition points of said salts are determined on a Dupont 900 Differential Thermal Analyzer. […] Decompositions are recorded by an exothermic response and the temperatures given in Table II below are assessed by the "onset method".

Another series deals with wheat. Description: Plant injury to wheat in leaf rust test. The class given is in vivo, Triticum vulgare, cv. Cheyenne. On the procedure: as §1, §2, §3, §4
Series [5] deals with Venturia inaequalis (Cke.) Wint. Description: whole plant or invertebrate. The class given is in vivo. The settings on record: in vivo.
The next series relates to groundsel and chickweed. The settings on record: in vivo; cited from earlier work.
Another series deals with crops. The settings on record: in vivo; cited from earlier work.

This is an account of results in patent US4130645A (priority 1978, dated 1978).

With `O=[N+]([O-])Nc1c(Cl)c(Cl)cc(Cl)c1Cl` [drawing 58], the “Rice Blast Percent Disease Control” value in [1] was found to be 83%. In addition, in the series on rice, the phytotoxicity entry was “M/Sv”.
As to `O=[N+]([O-])Nc1cccc(Br)c1` [drawing 77], the pest or weed control at 500 ppm in series [2] came to 84%.
As to `O=[N+]([O-])Nc1c(Cl)c(Cl)cc(Cl)c1Cl` [2,3,5,6-Tetrachloro-N-nitroaniline, 2,3,5,6-tetrachloro-N-nitroaniline], the “% Control (Ave)” value in series [3] (50 ppm) was found to be 35%; in series [3] (100 ppm), 58%; in [3] (200 ppm), 69%. Further, the “No. of Infection Loci/Replicate” value turned out to be 186 in [3] (50 ppm, Rep. 1); 173 in series [3] (50 ppm, Rep. 2); 199 in series [3] (50 ppm, Rep. 3); 124 in series [3] (100 ppm, Rep. 1); 119 in [3] (100 ppm, Rep. 2); 116 in series [3] (100 ppm, Rep. 3). In addition, the “No. of Infection Loci/Replicate” value is 81 in series [3] (200 ppm, Rep. 1); 96 in [3] (200 ppm, Rep. 2); 86 in series [3] (200 ppm, Rep. 3). For the same compound, in [4], the “Thermal Decomposition Point” value was found to be 150 °C. The “Plant Injury (Ave)” value with wheat (50 ppm), in the series on wheat (100 ppm) and with wheat (200 ppm) was 0 each time.
As to `Cc1cccc(N[N+](=O)[O-])c1C` [drawing 55], in [1], the “Rice Blast Percent Disease Control” value worked out at 81%.
As to `CC(=O)N(c1c(Cl)c(Cl)cc(Cl)c1Cl)[N+](=O)[O-]` [drawing 57], the “Rice Blast Percent Disease Control” value in [1] is listed as 100%.
As to `Cc1c(Cl)cccc1N[N+](=O)[O-]`, the pest or weed control at 500 ppm in [2] was found to be 84%.
For `O=[N+]([O-])Nc1c(Cl)c(Cl)cc(Cl)c1Cl` [drawing 62], the “Rice Blast Percent Disease Control” value in [1] is given as 69%.
As to `O=[N+]([O-])Nc1ccc(C(F)(F)F)cc1` [4-trifluoromethylphenylnitramine], in series [1], the “activity against the rice blast pathogen” value was “considerable activity”.
For `O=[N+]([O-])Nc1c(Br)cc(C(F)(F)F)cc1Br` [drawing 79], the pest or weed control at 500 ppm in series [2] was found to be 84%.
Consider `O=[N+]([O-])Nc1cccc(Cl)c1Cl` [2,3-dichlorophenylnitramine], for which, in series [5], the “activity against apple scab” value is listed as “active”. Besides, in series [2], the “activity against apple powdery mildew” value is listed as “active”.
`O=[N+]([O-])Nc1c(Cl)c(Cl)cc(Cl)c1Cl` [drawing 60]: the “Rice Blast Percent Disease Control” value in [1] is given as 83%.
Consider `O=[N+]([O-])Nc1c(Cl)c(Cl)cc(Cl)c1Cl` [drawing 61], for which the “Rice Blast Percent Disease Control” value in [1] was determined as 83%.
Take `O=[N+]([O-])Nc1cccc(Cl)c1Cl` [drawing 74]: the pest or weed control at 500 ppm in series [2] came out at 96%.
With `O=[N+]([O-])Nc1c(Cl)c(Cl)cc(Cl)c1Cl` [drawing 59], the “Rice Blast Percent Disease Control” value in series [1] is listed as 83%. Besides, the phytotoxicity result with rice is “M/Sv”.
On to `O=[N+]([O-])Nc1cccc(Cl)c1C(F)(F)F` [3-chloro-2-trifluoromethyl-], for which the “activity against apple powdery mildew” value in series [2] is “active”.
Consider `O=[N+]([O-])Nc1c(Cl)cccc1Cl` [drawing 75], for which, in [2], the pest or weed control at 500 ppm came out at 84%.
For `Cc1cccc(N[N+](=O)[O-])c1C` [2,3-dimethylphenylnitramine], the “activity against the rice blast pathogen” value in series [1] is listed as “considerable activity”.
With `O=[N+]([O-])Nc1ccc(Cl)c(C(F)(F)F)c1` [4-chloro-3-trifluoromethyl-], in [2], the “activity against apple powdery mildew” value is “active”.
`O=C(O)C1(O)c2ccccc2-c2ccc(Cl)cc21` (stereo not drawn) [2-chloro-9-fluorenol-9-carboxylic acid]: the weed control result with groundsel and chickweed is given as “weed control is achieved”. In the series on crops, the selectivity result is on record as “very little selectivity” and the “susceptibility of most crops examined” value is recorded as “susceptible”.
Regarding `Cc1cc([N+](=O)[O-])cc(C)c1N[N+](=O)[O-]` [2,6-dimethyl-4-nitro-], the “activity against apple powdery mildew” value in series [2] is listed as “active”.
As to `O=[N+]([O-])Nc1c(Br)cc(C(F)(F)F)cc1Br` [2,6-dibromo-4-trifluoromethylphenylnitramine], in series [5], the “activity against apple scab” value is on record as “active”. The “activity against apple powdery mildew” value in series [2] is given as “active”.
`O=[N+]([O-])Nc1ccc(Cl)c(C(F)(F)F)c1` [drawing 80]: in series [2], the pest or weed control at 500 ppm is 84%.
Regarding `CC(=O)N(c1c(Cl)c(Cl)cc(Cl)c1Cl)[N+](=O)[O-]` [N-acetyl derivative of 2,3,5,6-tetrachlorophenylnitramine], the “activity against the rice blast pathogen” value in [1] is listed as “considerable activity”. For the same compound, the “activity against apple powdery mildew” value in series [2] is recorded as “active”.
